Measured values taken from ChEMBL document CHEMBL3885861, “Open TG-GATES”.

Species on record: Rattus norvegicus
Assay: Open TG-GATES - Regimen: Single
Format: toxicity, organism-based, Sprague-Dawley
Design: regimen Single, gender Male, age 6 weeks
Details: in vivo, po, route gavage; for APTT / Bas / Eos / Fbg / Hb / Ht / Lym / MCH / MCHC / MCV / Mono / Neu / PT / Plat / RBC / Ret / WBC: tissue Blood; for KIDNEY_L / KIDNEY_R / KIDNEY_TOTAL: tissue Kidney; for LIVER: tissue Liver
[1] = 0 mg/kg, 24 h, tissue Plasma, dose level Control
[2] = 300 mg/kg, 3 h, tissue Plasma, dose level Low
[3] = 300 mg/kg, 6 h, tissue Plasma, dose level Low
[4] = 300 mg/kg, 9 h, tissue Plasma, dose level Low
[5] = 300 mg/kg, 24 h, dose level Low
[6] = 300 mg/kg, 24 h, tissue Plasma, dose level Low

## O=C(O)c1ccccc1Nc1ccccc1 [FENAMIC ACID]
[1]
  RALB: 2.7 g/dL
  TBIL: 0.034 mg/dL
  TC: 77.6 mg/dL
  TG: 82.6 mg/dL
  TP: 5.6 g/dL
  gamma-GTP: 1 IU/L
300 mg/kg, 3 h, dose level Low
  TERMINAL_BW: 209.1 g
  APTT: 16.8 s
  Bas: 0.8%
  Eos: 0.8%
  Fbg: 249.8 mg/dL
  Hb: 13.2 g/dL
  Ht: 40%
  Lym: 79.8%
  MCH: 20.5 pg
  MCHC: 33%
  MCV: 62.3 fL
  Mono: 2.2%
  Neu: 16.2%
  PT: 14.3 s
  Plat: 113.6 x10_4/uL
  RBC: 642.2 x10_4/ul
  Ret: 8.8%
  WBC: 95.7 x10_2/uL
  KIDNEY_L: 1 g
  KIDNEY_R: 0.9 g
  KIDNEY_TOTAL: 1.9 g
  LIVER: 8.2 g
[2]
  A/G: 0.9
  ALP: 1661.4 IU/L
  ALT: 38.2 IU/L
  AST: 73.4 IU/L
  BUN: 12.4 mg/dL
  CRE: 0.2 mg/dL
  Ca: 11.1 mg/dL
  Cl: 107.2 meq/L
  GLC: 187.4 mg/dL
  IP: 9.6 mg/dL
  K: 4.4 meq/L
  LDH: 78.4 IU/L
  Na: 144.4 meq/L
  PL: 124.6 mg/dL
  RALB: 2.5 g/dL
  TC: 67.4 mg/dL
  TG: 93.4 mg/dL
  TP: 5.4 g/dL
  gamma-GTP: 1 IU/L
300 mg/kg, 6 h, dose level Low
  TERMINAL_BW: 201.5 g
  APTT: 16.7 s
  Bas: 0.6%
  Eos: 0.8%
  Fbg: 248.8 mg/dL
  Hb: 13.5 g/dL
  Ht: 40.6%
  Lym: 74.6%
  MCH: 20.9 pg
  MCHC: 33.3%
  MCV: 62.9 fL
  Mono: 2.4%
  Neu: 21.4%
  PT: 14.5 s
  Plat: 114.4 x10_4/uL
  RBC: 645.8 x10_4/ul
  Ret: 8%
  WBC: 96.1 x10_2/uL
  KIDNEY_L: 0.9 g
  KIDNEY_R: 0.9 g
  KIDNEY_TOTAL: 1.8 g
  LIVER: 7.3 g
[3]
  A/G: 0.9
  ALP: 1342.6 IU/L
  ALT: 38.4 IU/L
  AST: 73 IU/L
  BUN: 8.8 mg/dL
  CRE: 0.2 mg/dL
  Ca: 10.7 mg/dL
  Cl: 107.4 meq/L
  GLC: 152.8 mg/dL
  IP: 9.9 mg/dL
  K: 3.9 meq/L
  LDH: 66.6 IU/L
  Na: 144.2 meq/L
  PL: 116.8 mg/dL
  RALB: 2.5 g/dL
  TC: 58.6 mg/dL
  TG: 38.8 mg/dL
  TP: 5.3 g/dL
  gamma-GTP: 1.2 IU/L
300 mg/kg, 9 h, dose level Low
  TERMINAL_BW: 205.1 g
  APTT: 17.9 s
  Bas: 0.6%
  Eos: 1%
  Fbg: 262.6 mg/dL
  Hb: 13.5 g/dL
  Ht: 40.6%
  Lym: 71.8%
  MCH: 20.9 pg
  MCHC: 33.1%
  MCV: 63.2 fL
  Mono: 2%
  Neu: 24.4%
  PT: 14.9 s
  Plat: 116.7 x10_4/uL
  RBC: 642.8 x10_4/ul
  Ret: 7.8%
  WBC: 78.3 x10_2/uL
  KIDNEY_L: 0.9 g
  KIDNEY_R: 0.9 g
  KIDNEY_TOTAL: 1.8 g
  LIVER: 7.2 g
[4]
  A/G: 0.9
  ALP: 1734.8 IU/L
  ALT: 35 IU/L
  AST: 69.6 IU/L
  BUN: 13.4 mg/dL
  CRE: 0.2 mg/dL
  Ca: 10.9 mg/dL
  Cl: 108 meq/L
  GLC: 149 mg/dL
  IP: 11 mg/dL
  K: 3.8 meq/L
  LDH: 60.6 IU/L
  Na: 146 meq/L
  PL: 121.6 mg/dL
  RALB: 2.6 g/dL
  TC: 59.4 mg/dL
  TG: 39.8 mg/dL
  TP: 5.5 g/dL
  gamma-GTP: 1.2 IU/L
[5]
  TERMINAL_BW: 218.8 g
  APTT: 17.6 s
  Bas: 0.6%
  Eos: 0.6%
  Fbg: 269.2 mg/dL
  Hb: 13.3 g/dL
  Ht: 40.1%
  Lym: 80.6%
  MCH: 20.9 pg
  MCHC: 33.1%
  MCV: 63.2 fL
  Mono: 2.6%
  Neu: 15%
  PT: 14.4 s
  Plat: 121.2 x10_4/uL
  RBC: 634.4 x10_4/ul
  Ret: 7.4%
  WBC: 115.6 x10_2/uL
  KIDNEY_L: 1 g
  KIDNEY_R: 1 g
  KIDNEY_TOTAL: 2 g
  LIVER: 10.2 g
[6]
  A/G: 0.9
  ALP: 1785.8 IU/L
  ALT: 38.6 IU/L
  AST: 71.2 IU/L
  BUN: 14 mg/dL
  CRE: 0.2 mg/dL
  Ca: 11.2 mg/dL
  Cl: 105.6 meq/L
  GLC: 173.4 mg/dL
  IP: 6.9 mg/dL
  K: 4 meq/L
  LDH: 130.6 IU/L
  Na: 144.2 meq/L
  PL: 143.2 mg/dL
  RALB: 2.6 g/dL
